For `CC1=C[C@H](O)CC(C)(C)[C@H]1/C=C/C(C)=C/C=C/C(C)=C/C=C/C=C(C)/C=C/C=C(C)/C=C/C1=C(C)C[C@@H](O)CC1(C)C`, the solubility (mole fraction) (in ethanol, 278.15 K) was 1.75e-05, the solubility (mole fraction) (in ethanol, 283.15 K) was 1.96e-05 and the solubility (mole fraction) (in ethanol, 288.15 K) was 2.27e-05. It also gave a solubility (mole fraction) (in ethanol, 293.15 K) of 2.63e-05, a solubility (mole fraction) (in ethanol, 298.15 K) of 3.16e-05 and a solubility (mole fraction) (in ethanol, 303.15 K) of 3.75e-05. For the same compound, the solubility (mole fraction) (in ethanol, 308.15 K) was 4.48e-05, the solubility (mole fraction) (in ethanol, 313.15 K) was 5.32e-05 and the solubility (mole fraction) (in ethanol, 318.15 K) was 6.42e-05. For the same compound, the solubility (mole fraction) (in ethanol, 323.15 K) was 7.72e-05, the solubility (mole fraction) (in ethylene glycol, 278.15 K) was 2.68e-07 and the solubility (mole fraction) (in ethylene glycol, 283.15 K) was 3.03e-07. For the same compound, the solubility (mole fraction) (in ethylene glycol, 288.15 K) was 3.48e-07, the solubility (mole fraction) (in ethylene glycol, 293.15 K) was 3.89e-07 and the solubility (mole fraction) (in ethylene glycol, 298.15 K) was 4.43e-07. The solubility (mole fraction) (in ethylene glycol, 303.15 K) was 5.17e-07, the solubility (mole fraction) (in ethylene glycol, 308.15 K) was 6.12e-07 and the solubility (mole fraction) (in ethylene glycol, 313.15 K) was 7.13e-07. The solubility (mole fraction) (in ethylene glycol, 318.15 K) was 8.45e-07, the solubility (mole fraction) (in ethylene glycol, 323.15 K) was 9.61e-07 and the solubility (mole fraction) (in isopropanol, 278.15 K) was 9.74e-07. The solubility (mole fraction) (in isopropanol, 283.15 K) was 1.03e-06, the solubility (mole fraction) (in isopropanol, 288.15 K) was 1.1e-06 and the solubility (mole fraction) (in isopropanol, 293.15 K) was 1.18e-06. For the same compound, the solubility (mole fraction) (in isopropanol, 298.15 K) was 1.27e-06, the solubility (mole fraction) (in isopropanol, 303.15 K) was 1.39e-06 and the solubility (mole fraction) (in isopropanol, 308.15 K) was 1.51e-06. The solubility (mole fraction) (in isopropanol, 313.15 K) was 1.67e-06, the solubility (mole fraction) (in isopropanol, 318.15 K) was 1.86e-06 and the solubility (mole fraction) (in isopropanol, 323.15 K) was 2.13e-06. For the same compound, the solubility (mole fraction) (in methanol, 278.15 K) was 2.31e-05, the solubility (mole fraction) (in methanol, 283.15 K) was 2.84e-05 and the solubility (mole fraction) (in methanol, 288.15 K) was 3.77e-05. For the same compound, the solubility (mole fraction) (in methanol, 293.15 K) was 4.91e-05, the solubility (mole fraction) (in methanol, 298.15 K) was 6.72e-05 and the solubility (mole fraction) (in methanol, 303.15 K) was 8.41e-05. The solubility (mole fraction) (in methanol, 308.15 K) was 0.000107, the solubility (mole fraction) (in methanol, 313.15 K) was 0.000134 and the solubility (mole fraction) (in methanol, 318.15 K) was 0.000166. It also gave a solubility (mole fraction) (in methanol, 323.15 K) of 0.000207.

Source: BigSolDB 2.1
